How the values were obtained:
[1] = test system: control sera (pooled serum of ten healthy LUMC hospital workers; commercial negative donor pooled serum from the Dutch bloodbank); assay type: binding, human; set-up: Binding of Control serum LUMC to linear peptides / Binding of Control serum Blood-bank to linear peptides / Binding of Control serum LUMC to looped peptides / Binding of Control Serum Blood-Bank to Looped peptides / Binding of Control serum LUMC to linear peptides of the protein M of SARS-CoV Urbani / Binding of Control serum Blood-bank to linear peptides of the protein M of SARS-CoV Urbani / Binding of Control serum LUMC to looped peptides of the protein M of SARS-CoV Urbani / Binding of Control Serum Blood-Bank to Looped peptides of the protein M of SARS-CoV Urbani: unit not given here
[2] = test system: antibodies in sera from SARS patients (sera 1a, 1b, 2, 6, 37, 62, London, SARS-yellow, SARS-green); assay type: binding, human; set-up: Binding of serum 6 to linear peptides of protein X1 of SARS-CoV Urbani / Binding of serum 37 to linear peptides of protein X1 of SARS-CoV Urbani / Binding of serum 6 to looped/cyclic peptide (PEPSCAN-ELISA) / Binding of serum 37 to looped/cyclic peptide (PEPSCAN-ELISA) / Binding of serum 37 to looped/cyclic peptides of protein X1 of SARS-CoV Urbani / Binding of serum 6 to linear peptides of protein X2 / Binding of serum 37 to linear peptides of protein X2 / Binding of serum 37 to looped/cyclic peptides of protein X2 of SARS-CoV Urbani / Binding of serum 6 to linear peptides of protein M of SARS-CoV Urbani / Binding of serum 37 to linear peptides of protein M of SARS-CoV Urbani / Binding of serum 6 to looped/cyclic peptides of protein M of SARS-CoV Urbani / Binding of serum 37 to looped/cyclic peptides of protein M of SARS-CoV Urbani / Binding of serum 6 to linear peptides of protein X3 of SARS-CoV Urbani / Binding of serum 37 to linear peptides of protein X3 of SARS-CoV Urbani / Binding of serum 37 to looped/cyclic peptides of protein X3 of SARS-CoV Urbani / Binding of serum 6 to linear peptides of protein X4 of SARS-CoV Urbani / Binding of serum 37 to linear peptides of protein X4 of SARS-CoV Urbani / Binding of serum 37 to looped/cyclic peptides of protein X4 of SARS-CoV Urbani / Binding of serum 6 to linear peptides of protein X5 of SARS-CoV Urbani / Binding of serum 37 to linear peptides of protein X5 of SARS-CoV Urbani / Binding of serum 37 to looped/cyclic peptides of protein X5 of SARS-CoV Urbani / Binding of serum 6 to linear peptides of protein N of SARS-CoV Urbani / Binding of serum 37 to linear peptides of protein N of SARS-CoV Urbani / Binding of serum 6 to linear peptide (PEPSCAN-ELISA) / Binding of serum 1a to looped/cyclic peptides of protein N of SARS-CoV Urbani / Binding of serum 1b to looped/cyclic peptides of protein N of SARS-CoV Urbani / Binding of serum 2 to looped/cyclic peptides of protein N of SARS-CoV Urbani / Binding of serum 6 to looped/cyclic peptides of protein N of SARS-CoV Urbani / Binding of serum 37 to looped/cyclic peptides of protein N of SARS-CoV Urbani / Binding of serum 62 to looped/cyclic peptides of protein N of SARS-CoV Urbani / Binding of serum London to looped/cyclic peptides of protein N of SARS-CoV Urbani / Binding of serum SARS-green to looped/cyclic peptides of protein N of SARS-CoV Urbani: unit not given here
[3] = test system: rabbit serum obtained by immunizing a rabbit with the SARS-CoV strain Frankfurt 1; assay type: binding; set-up: Binding of a rabbit serum to linear peptides / Binding of a rabbit serum to looped peptides / Rabbit serum linear peptides / Rabbit serum looped peptides / Binding of a rabbit serum to linear peptides of protein N of SARS-CoV Urbani (Rabbit serum linear peptides) / Binding of a rabbit serum to looped/cyclic peptides of protein N of SARS-CoV Urbani (Rabbit serum looped peptides): unit not given here

TIYSHLLLVAAGMEA
Binding of Control Serum Blood-Bank to Looped peptides [1]: 0.5 | Binding of Control serum Blood-bank to linear peptides [1]: 0.4 | Binding of Control serum LUMC to linear peptides [1]: 0.4 | Binding of Control serum LUMC to looped peptides [1]: 0.6 | Binding of serum 1a to linear peptides of protein X1 of SARS-CoV Urbani [2]: 0.6 | Binding of serum 1a to looped/cyclic peptide (PEPSCAN-ELISA) [2]: 0.5 | Binding of serum 1b to linear peptides of protein X1 of SARS-CoV Urbani [2]: 0.5 | Binding of serum 1b to looped/cyclic peptide (PEPSCAN-ELISA) [2]: 0.4 | Binding of serum 2 to linear peptides of protein X1 of SARS-CoV Urbani [2]: 0.4 | Binding of serum 2 to looped/cyclic peptide (PEPSCAN-ELISA) [2]: 0.3 | Binding of serum 6 to linear peptides of protein X1 of SARS-CoV Urbani [2]: 0.3 | Binding of serum 6 to looped/cyclic peptide (PEPSCAN-ELISA) [2]: 0.3 | Binding of serum 37 to linear peptides of protein X1 of SARS-CoV Urbani [2]: 0.5 | Binding of serum 37 to looped/cyclic peptide (PEPSCAN-ELISA) [2]: 0.5 | Binding of serum 62 to linear peptides of protein X1 of SARS-CoV Urbani [2]: 0.4 | Binding of serum 62 to looped/cyclic peptide (PEPSCAN-ELISA) [2]: 0.5 | Binding of serum London to linear peptides of protein X1 of SARS-CoV Urbani [2]: 0.2 | Binding of serum London to looped/cyclic peptide (PEPSCAN-ELISA) [2]: 0.2 | Binding of serum SARS-green to linear peptides of protein X1 of SARS-CoV Urbani [2]: 0.3 | Binding of serum SARS-green to looped/cyclic peptide (PEPSCAN-ELISA) [2]: 0.2 | Binding of serum SARS-yellow to linear peptides of protein X1 of SARS-CoV Urbani [2]: 0.5 | Binding of serum SARS-yellow to looped/cyclic peptide (PEPSCAN-ELISA) [2]: 0.3 | Binding of a rabbit serum to linear peptides [3]: 0.1 | Binding of a rabbit serum to looped peptides [3]: 0.4

LSLLKVTAFQHQNSK
Binding of Control Serum Blood-Bank to Looped peptides [1]: 0.4 | Binding of Control serum Blood-bank to linear peptides [1]: 0.1 | Binding of Control serum LUMC to linear peptides [1]: 0.4 | Binding of Control serum LUMC to looped peptides [1]: 0.3 | Binding of serum 1a to linear peptides of protein X2 [2]: 0.4 | Binding of serum 1a to looped/cyclic peptides of protein X2 of SARS-CoV Urbani [2]: 0.3 | Binding of serum 1b to linear peptides of protein X2 [2]: 0.1 | Binding of serum 1b to looped/cyclic peptides of protein X2 of SARS-CoV Urbani [2]: 0.2 | Binding of serum 2 to linear peptides of protein X2 [2]: 0.1 | Binding of serum 2 to looped/cyclic peptides of protein X2 of SARS-CoV Urbani [2]: 0.1 | Binding of serum 6 to linear peptides of protein X2 [2]: 0.2 | Binding of serum 6 to looped/cyclic peptides of protein X2 of SARS-CoV Urbani [2]: 0.1 | Binding of serum 37 to linear peptides of protein X2 [2]: 0.4 | Binding of serum 37 to looped/cyclic peptides of protein X2 of SARS-CoV Urbani [2]: 0.2 | Binding of serum 62 to linear peptides of protein X2 [2]: 0.2 | Binding of serum 62 to looped/cyclic peptides of protein X2 of SARS-CoV Urbani [2]: 0.3 | Binding of serum London to linear peptides of protein X2 [2]: 0.2 | Binding of serum London to looped/cyclic peptides of protein X2 of SARS-CoV Urbani [2]: 0.1 | Binding of serum SARS-green to linear peptides of protein X2 [2]: 0.1 | Binding of serum SARS-green to looped/cyclic peptides of protein X2 of SARS-CoV Urbani [2]: 0.1 | Binding of serum SARS-yellow to linear peptides of protein X2 [2]: 0.0 | Binding of serum SARS-yellow to looped/cyclic peptides of protein X2 of SARS-CoV Urbani [2]: 0.2 | Binding of a rabbit serum to linear peptides [3]: 0.4 | Binding of a rabbit serum to looped peptides [3]: 0.3
